# Where two headings read alike, the source gives them in different places.
# Tests used:
# [1] = system: Escherichia coli ATCC 25922; test: microbe, parasite or virus in culture; conditions: Escherichia coli, ATCC25922
# Description: (§1) Reference strains are from the German Collection of Microorganisms and Cell Cultures (DSMZ), the American Type Culture Collection (ATCC), the National Collection of Type Cultures (NCTC), and the Medical and Molecular Microbiology, Faculty of Science and Medicine, University of Fribourg, Switzerland.
# [2] = system: Klebsiella pneumoniae NCTC 13443; test: microbe, parasite or virus in culture; conditions: Klebsiella pneumoniae, NCTC13443
# Description: as §1
# [3] = system: Klebsiella pneumoniae ATCC 43816; test: microbe, parasite or virus in culture; conditions: Klebsiella pneumoniae, ATCC43816
# Description: as §1
# [4] = system: Pseudomonas aeruginosa DSM 1117; test: microbe, parasite or virus in culture; conditions: Pseudomonas aeruginosa, DSM1117
# Description: as §1
# [5] = system: Staphylococcus epidermidis ATCC 12228; test: microbe, parasite or virus in culture; conditions: Staphylococcus epidermidis, ATCC12228
# Description: as §1
# [6] = system: Stenotrophomonas maltophilia ATCC 13637; test: microbe, parasite or virus in culture; conditions: Stenotrophomonas maltophilia, ATCC13637
# Description: as §1
# [7] = system: Enterococcus faecalis DSM 2570; test: microbe, parasite or virus in culture; conditions: Enterococcus faecalis, DSM2570
# Description: as §1
# [8] = system: Citrobacter freundii DSM 30039; test: microbe, parasite or virus in culture; conditions: Citrobacter freundii, DSM30039
# Description: as §1
# [9] = system: Klebsiella pneumoniae ATCC BAA-1905; test: microbe, parasite or virus in culture; conditions: Klebsiella pneumoniae, ATCCBAA1905
# Description: as §1
# [10] = system: Citrobacter kozeri DSM 4595; test: microbe, parasite or virus in culture; conditions: Citrobacter, DSM4595
# Description: as §1
# [11] = system: Klebsiella pneumoniae ATCC BAA-1904; test: microbe, parasite or virus in culture; conditions: Klebsiella pneumoniae, ATCCBAA1904
# Description: as §1
# [12] = system: Staphylococcus aureus ATCC 29213; test: microbe, parasite or virus in culture; conditions: Staphylococcus aureus, ATCC29213
# Description: as §1
# [13] = system: Enterococcus faecium DSM 20477; test: microbe, parasite or virus in culture; conditions: Enterococcus faecium, DSM20477
# Description: as §1
# [14] = system: Streptococcus pneumoniae DSM 2134; test: microbe, parasite or virus in culture; conditions: Streptococcus pneumoniae, DSM2134
# Description: as §1
# [15] = system: Klebsiella pneumoniae NCTC 13439; test: microbe, parasite or virus in culture; conditions: Klebsiella pneumoniae, NCTC13439
# Description: as §1
# [16] = system: Serratia marcescens DSM 17174; test: microbe, parasite or virus in culture; conditions: Serratia marcescens, DSM17174
# Description: as §1
# [17] = system: Escherichia coli BAA-2471; test: microbe, parasite or virus in culture; conditions: Escherichia coli, BAA2471
# Description: as §1
# [18] = system: Escherichia coli BAA-2469; test: microbe, parasite or virus in culture; conditions: NDM-1
# Description: as §1
# [19] = system: Acinetobacter baumannii ATCC 19606; test: microbe, parasite or virus in culture; conditions: Acinetobacter baumannii, ATCC19606
# Description: as §1
# [20] = system: Klebsiella pneumoniae NCTC 13442; test: microbe, parasite or virus in culture; conditions: Klebsiella pneumoniae, NCTC13442
# Description: as §1
# [21] = system: Enterobacter cloacae DSM 14563; test: microbe, parasite or virus in culture; conditions: Enterobacter cloacae, DSM14563
# Description: as §1
# [22] = system: Enterobacter aerogenes DSM 30053; test: microbe, parasite or virus in culture; conditions: Klebsiella aerogenes, DSM30053
# Description: as §1
# [23] = system: Klebsiella pneumoniae (56); test: microbe, parasite or virus in culture; conditions: Klebsiella pneumoniae
# Description: as §1
# [24] = system: Ciprofloxacin-resistant K. pneumoniae (27); test: microbe, parasite or virus in culture; conditions: Klebsiella pneumoniae
# Description: as §1
# Escherichia coli (101) = test: microbe, parasite or virus in culture; conditions: Escherichia coli
# Description: as §1
# [25] = system: Enterobacter cloacae (13); test: microbe, parasite or virus in culture; conditions: Enterobacter cloacae
# Description: as §1
# [26] = system: Gentamicin-resistant K. pneumoniae (16); test: microbe, parasite or virus in culture; conditions: Klebsiella pneumoniae
# Description: as §1
# [27] = system: Citrobacter freundii (16); test: microbe, parasite or virus in culture; conditions: Citrobacter freundii
# Description: as §1
# [28] = system: Ciprofloxacin-resistant E. coli (19); test: microbe, parasite or virus in culture; conditions: Escherichia coli
# Description: as §1
# [29] = system: human renal proximal tubular epithelial cells (HRPTEpiC); test: Multiplexed HRPTEpiC cytotoxicity assay (cell viability, KIM-1, HSP27)
# Experimental: The multiplexed cytotoxicity assay on human renal proximal tubule epithelial cells (HRPTEpiC) was conducted by Eurofins Panlabs (Eurofins Panlabs, Inc., St. Charles, MO) by using an image-based high content analysis (HCA) technique where cells were fixed and stained with nuclear dye to visualize nuclei and fluorescently labeled antibodies to detect drug-induced cellular injury and cellular stress arising from oxidative and chemical stress. Cells were seeded into 384-well plates and grown in RPMI 1640, 10% fetal bovine serum (FBS), 2 mM L-alanyl-L-glutamine, and 1 mM sodium pyruvate in a humidified atmosphere of 5% CO2 at 37°C. […] Compounds were serially diluted 3.16-fold and assayed over 10 concentrations in a final assay concentration of 0.5% dimethyl sulfoxide (DMSO) from 100 μM to 3.7 nM. At the same time, a time zero untreated cell plate was generated. After a 48-h incubation period, cells were fixed and stained with fluorescently labeled antibodies and nuclear dyed to allow visualization of nuclei, injured cells, and stressed cells. Injured cells were detected using a KIM-1 (kidney injury molecule 1) antibody. Stressed cells were detected using an anti-HSP27 (heat shock protein 27) antibody. Cell proliferation was measured by the signal intensity of the incorporated nuclear dye. The cell proliferation assay output was referred to as the relative cell count. To determine the cell proliferation endpoint, the cell proliferation data output was transformed to percentage of control (POC) using the following formula: POC = relative cell count in compound wells/relative cell count in vehicle wells × 100. The signal intensity of the incorporated cellular stress and injury measurements were normalized with the relative cell count from each well. Automated fluorescence microscopy was carried out using a Molecular Devices ImageXpress micro-imager, and images were collected with a 4× objective.
# [30] = system: K. pneumoniae NCTC 13442 (OXA-48); test: Neutropenic mouse lung infection model; assay type: in vivo, Klebsiella pneumoniae; conditions: 160 mg/kg/day s.c. (40 mg/kg at 2, 8, 14, 20 h), 26 h postchallenge
# [31] = system: Escherichia coli, colistin-resistant (25)
# Description: as §1
# [32] = system: Klebsiella pneumoniae, colistin resistant (46)
# Description: as §1
# [33] = Escherichia coli, BAA2469, Ambler class B carbapenemase
molecule,measurement,setting,value
"C[C@@H](O)[C@H]1C(=O)N2C(C(=O)O)=C(SCCN=CN)C[C@H]12 [IPM, imipenem]",MIC,[1],0.25 µg/mL
same,MIC,[2],> 64 µg/mL
same,MIC,[3],1 µg/mL
same,MIC,[4],2 µg/mL
same,MIC,[5],≤ 0.125 µg/mL
same,MIC,[6],> 64 µg/mL
same,MIC,[7],1 µg/mL
same,MIC,[8],1 µg/mL
same,MIC,[9],> 64 µg/mL
same,MIC,[10],4 µg/mL
same,MIC,[11],32 µg/mL
same,MIC,[12],≤ 0.125 µg/mL
same,MIC,[13],4 µg/mL
same,MIC,[14],≤ 0.125 µg/mL
same,MIC,[15],32 µg/mL
same,MIC,[16],2 µg/mL
same,MIC,[17],> 64 µg/mL
same,MIC,[18]; [33],32 µg/mL
same,MIC,[19],0.5 µg/mL
same,MIC,[20],16 µg/mL
same,MIC,[21],1 µg/mL
same,MIC,[22],2 µg/mL
"CNC(C)C1CCC(N)C(OC2C(N)CC(N)C(OC3OCC(C)(O)C(NC)C3O)C2O)O1 (centres unmarked) [GEN, gentamicin]",MIC50,[23],1 µg/mL
same,MIC90,[23],> 32 µg/mL
same,MIC,[1],1 µg/mL
same,MIC,[2],> 64 µg/mL
same,MIC,[3],0.25 µg/mL
same,MIC,[4],1 µg/mL
same,MIC,[5],≤ 0.125 µg/mL
same,MIC,[6],4 µg/mL
same,MIC,[7],16 µg/mL
same,MIC50,[24],32 µg/mL
same,MIC90,[24],> 32 µg/mL
same,MIC,[8],0.5 µg/mL
same,MIC,[9],32 µg/mL
same,MIC,[10],0.25 µg/mL
same,MIC,[11],16 µg/mL
same,MIC50,Escherichia coli (101),1 µg/mL
same,MIC90,Escherichia coli (101),2 µg/mL
same,MIC,[12],0.5 µg/mL
same,MIC50,[25],32 µg/mL
same,MIC90,[25],> 32 µg/mL
same,MIC,[13],8 µg/mL
same,MIC,[14],8 µg/mL
same,MIC,[15],1 µg/mL
same,MIC,[16],0.5 µg/mL
same,MIC,[17],> 64 µg/mL
same,MIC50,[26],> 32 µg/mL
same,MIC90,[26],> 32 µg/mL
same,MIC,[18]; [33],> 64 µg/mL
same,MIC,[19],16 µg/mL
same,MIC,[20],0.25 µg/mL
same,MIC50,[27],1 µg/mL
same,MIC90,[27],> 32 µg/mL
same,MIC,[21],0.5 µg/mL
same,MIC50,[28],0.5 µg/mL
same,MIC90,[28],> 32 µg/mL
same,MIC,[22],0.25 µg/mL
same,cytotoxicity to HRPTEpiC (in words),"[29]; concentrations up to 100 μM, 48-h incubation",not cytotoxic
same,concentration inducing a significant (5-fold) increase of HSP27 level,[29]; tested up to 100 μM,22.4 µM
same,concentration inducing a significant (5-fold) increase of KIM-1 level,[29]; tested up to 100 μM,> 100 µM
"CN(C)c1cc(NC(=O)CNC(C)(C)C)c(O)c2c1C[C@H]1C[C@H]3[C@H](N(C)C)C(O)=C(C(N)=O)C(=O)[C@@]3(O)C(O)=C1C2=O [TGC, tigecycline]",MIC,[1],0.25 µg/mL
same,MIC,[2],4 µg/mL
same,MIC,[3],2 µg/mL
same,MIC,[4],> 8 µg/mL
same,MIC,[5],0.5 µg/mL
same,MIC,[6],0.5 µg/mL
same,MIC,[7],0.25 µg/mL
same,MIC,[8],1 µg/mL
same,MIC,[9],4 µg/mL
same,MIC,[10],1 µg/mL
same,MIC,[11],2 µg/mL
same,MIC,[12],0.5 µg/mL
same,MIC,[13],0.125 µg/mL
same,MIC,[14],0.125 µg/mL
same,MIC,[15],2 µg/mL
same,MIC,[16],4 µg/mL
same,MIC,[17],1 µg/mL
same,MIC,[18]; Ambler class B carbapenemase,1 µg/mL
same,MIC,[18]; [33],0.5 µg/mL
same,MIC,[19],1 µg/mL
same,MIC,[20],2 µg/mL
same,MIC,[21],4 µg/mL
same,MIC,[22],1 µg/mL
same,reduction of lung burden relative to vehicle,[30],3.14 log10 CFU/gram of lung tissue
colistin [CST],MIC range,[31]; Unknown mechanism (2 isolates),16 µg/mL
same,MIC range,[31]; mcr-1 (21 isolates),4 to 16 µg/mL
same,MIC range,[31]; mcr-2 (1 isolate),8 µg/mL
same,MIC range,[31]; mcr-3 (1 isolate),16 µg/mL
same,MIC range,[32]; Unknown mechanism (1),32 µg/mL
same,MIC range,[32]; crrB G183V substitution (1),>128 µg/mL
same,MIC range,[32]; crrB N141Y substitution (1),>128 µg/mL
same,MIC range,[32]; crrB P151L substitution (1),>128 µg/mL
same,MIC range,[32]; mcr-1 (1),32 µg/mL
same,MIC range,[32]; mgrB IS1R between +44 and +45 (2),128 µg/mL
same,MIC range,[32]; mgrB IS1R into promoter between −45 and −46 (3),32 to 128 µg/mL
same,MIC range,[32]; mgrB IS5 between +74 and +75 (4),16 to 128 µg/mL
same,MIC range,[32]; mgrB IS903B between +69 and +70 (2),64 µg/mL
same,MIC range,[32]; mgrB ISKpn14 into promoter between −28 and −29 (2),64 µg/mL
same,MIC range,[32]; mgrB M27K substitution (1),32 µg/mL
same,MIC range,[32]; mgrB N42Y and K43I substitutions (1),32 µg/mL
same,MIC range,[32]; mgrB W20R substitution (1),32 µg/mL
same,MIC range,[32]; mgrB W47R substitution (1),8 µg/mL
same,MIC range,[32]; mgrB premature termination (6),32 to 128 µg/mL
same,MIC range,[32]; phoQ R16C substitution (1),>128 µg/mL
same,MIC range,[32]; pmrB L17Q substitution (1),32 µg/mL
same,MIC range,[32]; pmrB T157P substitution (6),8 to 32 µg/mL

# — PMC6125496 (Antimicrobial Agents and Chemotherapy, 2018)
